target: T1, hMC2 receptor (crude hMC2R membranes from CRE-bla-CHO-K1 cells stably expressing hMC2 receptor and hMRAP accessory protein) (Homo sapiens, UniProt Q01718); assay: hMC2 membrane binding assay ([125I]ACTH (1-39) Tyr23, SPA); conditions: displacement of 0.2 nM [125I]ACTH (1-39) Tyr23 from hMC2R membranes, 1.5 hours at room temperature; read-out: MC2R binding potency
T1 construct: crude membrane fractions
Procedure, shortened: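 Ki values come from non-linear regression of SPA scintillation counts, with compounds displacing [125I]ACTH(1-39) Tyr23. Membranes come from CRE-bla-CHO-K1 cells stably expressing hMC2 receptor together with hMRAP. They are preincubated with WGA-coated PVT SPA beads in 50 mM HEPES pH 7.4 with 0.20% BSA, Mg2+, Ca2+ and protease inhibitors.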

T1 sequence (Q01718 whole entry): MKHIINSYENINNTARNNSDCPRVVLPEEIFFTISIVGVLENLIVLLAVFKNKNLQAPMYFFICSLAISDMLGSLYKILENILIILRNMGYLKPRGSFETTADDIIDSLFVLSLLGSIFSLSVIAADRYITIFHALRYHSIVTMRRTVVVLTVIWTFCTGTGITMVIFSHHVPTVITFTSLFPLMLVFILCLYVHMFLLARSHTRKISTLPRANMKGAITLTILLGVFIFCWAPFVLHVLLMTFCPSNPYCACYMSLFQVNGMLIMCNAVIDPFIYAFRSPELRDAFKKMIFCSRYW
T1 sequence (Q8TCY5 whole entry partner): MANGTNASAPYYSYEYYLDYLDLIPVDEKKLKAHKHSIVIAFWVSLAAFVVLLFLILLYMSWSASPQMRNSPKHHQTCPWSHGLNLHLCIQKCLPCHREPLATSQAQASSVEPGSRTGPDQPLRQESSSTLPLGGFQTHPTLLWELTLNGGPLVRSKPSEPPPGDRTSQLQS

Molecule | Ki
CCOc1ncccc1-c1ccc(C2(C(=O)N[C@@H]3CCN(C)C3)CCN(c3c(Cl)cc(C(F)(F)F)cc3C#N)CC2)cc1 [Compound 1-29, 1-[2-chloro-6-cyano-4-(trifluoromethyl)phenyl]-4-[4-(2-ethoxypyridin-3-yl)phenyl]-N-[(3R)-1-methylpyrrolidin-3-yl]piperidine-4-carboxamide] | 10 to 100 nM
CN1CC[C@@H](NC(=O)C2(c3ccc(-c4cccc(F)c4O)nc3)CCN(c3ccc(C(F)(F)F)cc3C#N)CC2)C1 [Compound 1-129, 1-[2-cyano-4-(trifluoromethyl)phenyl]-4-[6-(3-fluoro-2-hydroxyphenyl)pyridin-3-yl]-N-[(3R)-1-methylpyrrolidin-3-yl]piperidine-4-carboxamide] | 10 to 100 nM
CCOC(=O)N1CC[C@H](NC(=O)C2(c3ccc(-c4cccn4C)nc3)CCN(c3ccc(C(F)(F)F)cc3C#N)CC2)C1 [Compound 1-184, ethyl (3S)-3-{1-[2-cyano-4-(trifluoromethyl)phenyl]-4-[6-(1-methyl-1H-pyrrol-2-yl)pyridin-3-yl]piperidine-4-amido}pyrrolidine-1-carboxylate] | 100 to 1000 nM
CN1CC[C@@H](NC(=O)C2(c3ccc(-c4ccc(C#N)n4C)nc3)CCN(c3ccc(C(F)(F)F)cc3C#N)CC2)C1 [Compound 1-153, 4-[6-(5-cyano-1-methyl-1H-pyrrol-2-yl)pyridin-3-yl]-1-[2-cyano-4-(trifluoromethyl)phenyl]-N-[(3R)-1-methylpyrrolidin-3-yl]piperidine-4-carboxamide] | 10 to 100 nM
Cn1cccc1-c1ccc(C2(C(=O)N[C@H]3C[C@@H](N)C3)CCN(c3ccc(C(F)(F)F)cc3C#N)CC2)cn1 [Compound 1-233, 1-[2-cyano-4-(trifluoromethyl)phenyl]-4-[6-(1-methyl-1H-pyrrol-2-yl)pyridin-3-yl]-N-[(1S,3S)-3-aminocyclobutyl]piperidine-4-carboxamide] | 10 to 100 nM
Cc1ncncc1-c1ccc(C2(C(=O)N[C@@H]3CCN(C)C3)CCN(c3ccc(C(F)(F)F)cc3C#N)CC2)cn1 [Compound 1-105, 1-[2-cyano-4-(trifluoromethyl)phenyl]-4-[6-(4-methylpyrimidin-5-yl)pyridin-3-yl]-N-[(3R)-1-methylpyrrolidin-3-yl]piperidine-4-carboxamide] | 10 to 100 nM
CN1C[C@@H](O)[C@H](NC(=O)C2(c3ccc(-c4cccn4C)nc3)CCN(c3ccc(C(F)(F)F)cc3C#N)CC2)C1 [Compound 1-269, 1-[2-cyano-4-(trifluoromethyl)phenyl]-N-[(3R,4R)-4-hydroxy-1-methylpyrrolidin-3-yl]-4-[6-(1-methyl-1H-pyrrol-2-yl)pyridin-3-yl]piperidine-4-carboxamide] | < 10 nM
CN1CC[C@@H](NC(=O)C2(c3ccc(-c4cccc5c4OC(F)(F)O5)nc3)CCN(c3ccc(C(F)(F)F)cc3C#N)CC2)C1 [Compound 1-67, 1-[2-cyano-4-(trifluoromethyl)phenyl]-4-[6-(2,2-difluoro-2H-1,3-benzodioxol-4-yl)pyridin-3-yl]-N-[(3R)-1-methylpyrrolidin-3-yl]piperidine-4-carboxamide] | 10 to 100 nM
1-{1-[2-cyano-4-(trifluoromethyl)phenyl]-4-[6-(1-methyl-1H-pyrrol-2-yl)pyridin-3-yl]piperidin-4-yl}-3-[(3R)-1-methylpyrrolidin-3-yl]urea [Compound 2-48] | < 10 nM
CCOc1ccccc1-c1ccc(C2(C(=O)N[C@H]3CCN(C)C3)CCN(c3ccc(C(F)(F)F)cc3F)CC2)nn1 [Compound 1-174, 4-[6-(2-ethoxyphenyl)pyridazin-3-yl]-1-[2-fluoro-4-(trifluoromethyl)phenyl]-N-[(3S)-1-methylpyrrolidin-3-yl]piperidine-4-carboxamide] | < 10 nM
CCOc1ncccc1-c1ccc(C2(C(=O)N[C@H]3CCNC3)CCN(c3ccc(C(F)(F)F)cc3C#N)CC2)cn1 [Compound 1-12, 1-[2-cyano-4-(trifluoromethyl)phenyl]-4-{2′-ethoxy-[2,3′-bipyridin]-5-yl}-N-[(3S)-pyrrolidin-3-yl]piperidine-4-carboxamide] | < 10 nM
COc1ccsc1-c1ccc(C2(C(=O)N[C@@H]3CCN(C)C3)CCN(c3ccc(C(F)(F)F)cc3C#N)CC2)cn1 [Compound 1-80, 1-[2-cyano-4-(trifluoromethyl)phenyl]-4-[6-(3-methoxythiophen-2-yl)pyridin-3-yl]-N-[(3R)-1-methylpyrrolidin-3-yl]piperidine-4-carboxamide] | < 10 nM
CCOc1ncccc1-c1ccc(C2(C(=O)NCCN(C)C)CCN(c3ccc(C(F)(F)F)cc3Cl)CC2)cn1 [Compound 1-224, 1-[2-chloro-4-(trifluoromethyl)phenyl]-N-[2-(dimethylamino)ethyl]-4-{2′-ethoxy-[2,3′-bipyridin]-5-yl}piperidine-4-carboxamide] | < 10 nM
Cn1cccc1-c1ccc(C2(C(=O)N[C@H]3CN4CCC3CC4)CCN(c3ccc(C(F)(F)F)cc3C#N)CC2)cn1 [Compound 1-188, N-[(3R)-1-azabicyclo[2.2.2]octan-3-yl]-1-[2-cyano-4-(trifluoromethyl)phenyl]-4-[6-(1-methyl-1H-pyrrol-2-yl)pyridin-3-yl]piperidine-4-carboxamide] | 10 to 100 nM
CNCCNC(=O)C1(c2ccc(-c3ccccc3OC)nc2)CCN(c2ccc(C(F)(F)F)cc2Cl)CC1 [Compound 1-257, 1-[2-chloro-4-(trifluoromethyl)phenyl]-4-[6-(2-methoxyphenyl)pyridin-3-yl]-N-[2-(methylamino)ethyl]piperidine-4-carboxamide] | < 10 nM

Results, then the molecule that gave them:

Ki | Molecule
< 10 nM | COc1ccc(F)cc1-c1ccc(C2(C(=O)N[C@H]3CCN(C)C3)CCN(c3ccc(C(F)(F)F)cc3C#N)CC2)cn1 [Compound 1-102, 1-[2-cyano-4-(trifluoromethyl)phenyl]-4-[6-(5-fluoro-2-methoxyphenyl)pyridin-3-yl]-N-[(3S)-1-methylpyrrolidin-3-yl]piperidine-4-carboxamide]
< 10 nM | COc1ncccc1-c1ccc(C2(C(=O)N[C@@H]3CCN(C)C3)CCN(c3ccc(C(F)(F)F)cc3C#N)CC2)cn1 [Compound 1-98, 1-[2-cyano-4-(trifluoromethyl)phenyl]-4-{2′-methoxy-[2,3′-bipyridin]-5-yl}-N-[(3R)-1-methylpyrrolidin-3-yl]piperidine-4-carboxamide]
< 10 nM | CN1C[C@H](NC(=O)C2(c3ccc(-c4cccn4C)nc3)CCN(c3ccc(C(F)(F)F)cc3C#N)CC2)[C@@H](O)C1 [Compound 1-270, 1-[2-cyano-4-(trifluoromethyl)phenyl]-N-[(3S,4S)-4-hydroxy-1-methylpyrrolidin-3-yl]-4-[6-(1-methyl-1H-pyrrol-2-yl)pyridin-3-yl]piperidine-4-carboxamide]
< 10 nM | CCOc1ncccc1-c1ccc(C2(NC(=O)N3CC[C@H](NC)C3)CCN(c3ccc(C(F)(F)F)cc3C#N)CC2)cn1 [Compound 2-24, (3S)—N-{1-[2-cyano-4-(trifluoromethyl)phenyl]-4-{2′-ethoxy-[2,3′-bipyridin]-5-yl}piperidin-4-yl}-3-(methylamino)pyrrolidine-1-carboxamide]
< 10 nM | COc1ccccc1-c1ncc(C2(NC(=O)CN(C)C)CCN(c3ccc(C(F)(F)F)cc3C#N)CC2)cc1F [Compound 2-61, N-{1-[2-cyano-4-(trifluoromethyl)phenyl]-4-[5-fluoro-6-(2-methoxyphenyl)pyridin-3-yl]piperidin-4-yl}-2-(dimethylamino)acetamide]
< 10 nM | COc1ccccc1-c1ccc(C2(C(=O)N[C@H]3CCN(C)C3)CCN(c3ccc(C(F)(F)F)cc3Cl)CC2)cn1 [Compound 1-144, 1-[2-chloro-4-(trifluoromethyl)phenyl]-4-[6-(2-methoxyphenyl)pyridin-3-yl]-N-[(3S)-1-methylpyrrolidin-3-yl]piperidine-4-carboxamide]
< 10 nM | CCOc1ccccc1-c1ccc(C2(NC(=O)CCN(C)C)CCN(c3ccc(C(F)(F)F)cc3C#N)CC2)cn1 [Compound 2-36, N-{1-[2-cyano-4-(trifluoromethyl)phenyl]-4-[6-(2-ethoxyphenyl)pyridin-3-yl]piperidin-4-yl}-3-(dimethylamino)propanamide]
< 10 nM | CCOc1ncccc1-c1ccc(C2(C(=O)NCC3CN(C)C3)CCN(c3ccc(C(F)(F)F)cc3C#N)CC2)cn1 [Compound 1-18, 1-[2-cyano-4-(trifluoromethyl)phenyl]-4-{2′-ethoxy-[2,3′-bipyridin]-5-yl}-N-[(1-methylazetidin-3-yl)methyl]piperidine-4-carboxamide]
< 10 nM | CCOc1ncccc1-c1ccc(C2(C(=O)N[C@H]3CCN(C)C3)CCN(c3ccc(C(F)(F)F)cc3Cl)CC2)nn1 [Compound 1-194, 1-[2-chloro-4-(trifluoromethyl)phenyl]-4-[6-(2-ethoxypyridin-3-yl)pyridazin-3-yl]-N-[(3S)-1-methylpyrrolidin-3-yl]piperidine-4-carboxamide]
< 10 nM | Cn1cccc1-c1ccc(C2(C(=O)NCCN3CCC3)CCN(c3ccc(C(F)(F)F)cc3C#N)CC2)cn1 [Compound 1-248, N-[2-(azetidin-1-yl)ethyl]-1-[2-cyano-4-(trifluoromethyl)phenyl]-4-[6-(1-methyl-1H-pyrrol-2-yl)pyridin-3-yl]piperidine-4-carboxamide]
< 10 nM | CCOc1ncccc1-c1ccc(C2(C(=O)N[C@@H]3CCN(C)C3)CCN(c3ccc(C(F)(F)F)cc3C#N)CC2)nn1 [Compound 1-57, 1-[2-cyano-4-(trifluoromethyl)phenyl]-4-[6-(2-ethoxypyridin-3-yl)pyridazin-3-yl]-N-[(3R)-1-methylpyrrolidin-3-yl]piperidine-4-carboxamide]
< 10 nM | CCOc1ncccc1-c1ccc(C2(NC(=O)N3CC[C@@H](NC)C3)CCN(c3ccc(C(F)(F)F)cc3C#N)CC2)cn1 [Compound 2-21]
